For one experiment, the system named is androgenic alopecia. Particulars: 1 milligram per day, 24 months, 100 men; cited from earlier work.
A further experiment addresses T1, 5α-Reductase Type 2 (Homo sapiens, UniProt P31213).
T1 sequence (P31213 1-254): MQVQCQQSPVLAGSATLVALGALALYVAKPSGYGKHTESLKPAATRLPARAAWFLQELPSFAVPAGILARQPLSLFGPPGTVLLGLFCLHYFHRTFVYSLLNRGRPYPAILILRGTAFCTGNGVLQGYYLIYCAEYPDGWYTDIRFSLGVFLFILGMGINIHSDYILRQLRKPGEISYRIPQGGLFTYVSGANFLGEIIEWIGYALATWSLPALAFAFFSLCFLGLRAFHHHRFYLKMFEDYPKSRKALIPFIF
Description: inhibition of 5α-Reductase Type 2 enzyme (Inhibition Experiments 1 and 2). It counts as biochemical. An excerpt:
(§1) The different free fatty acids of medium and long saturated chains and long unsaturated chains are shown, together with esterified fatty acids, oxidized fatty acids, fatty alcohols, phytosterols, and other components. The magnitude of the activity is designated by “none,” “moderate” or “very active” (FIG. 3). The various constituents shown in the table of FIG. 2 are also shown and listed as free fatty acid molecules with: a) medium, saturated chains, b) long, saturated chains, and c) long unsaturated chains. There are esterified fatty acids, oxidized fatty acids, and fatty alcohols. These tables support other evidence that the five active free fatty acids for prostate and hair health are lauric, myristic, oleic, linoleic and linolenic free fatty acids.
Data are shown in the graphs and bar charts of FIGS. 5 and 6 where data are reported as the effectiveness to inhibit enzyme activity (IC50). […]
Inhibition Experiment 2 shown in FIG. 6 determined the possible impact of Permixon® product matrix (PEG) on an in vitro assay and the pegylated and conventional ultra-high purity supercritical CO2 extract having the PEG matrix (U4602-PEG) was compared to the commercially available Permixon® and the conventional unpegylated product (U4602) for their ability to inhibit the 5α-Reductase 2 enzyme. […]

A further experiment relates to hair growth. To be noted: normal shaved mice, after about 20 days; cited from earlier work.
In the next experiment the target is T2, 5α-Reductase Type 1 (Homo sapiens, UniProt P18405).
T2 sequence (P18405 1-259): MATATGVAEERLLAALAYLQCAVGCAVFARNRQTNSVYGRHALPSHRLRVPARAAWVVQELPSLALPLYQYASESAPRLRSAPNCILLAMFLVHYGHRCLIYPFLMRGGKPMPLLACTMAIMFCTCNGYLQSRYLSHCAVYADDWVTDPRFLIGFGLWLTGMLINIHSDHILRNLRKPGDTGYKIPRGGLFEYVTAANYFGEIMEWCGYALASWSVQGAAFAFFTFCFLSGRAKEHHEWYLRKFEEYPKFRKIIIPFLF
The experiment can be described thus: inhibition of 5α-Reductase Type 1 enzyme. It is filed as biochemical.
Source text: as §1
Reference is now made to FIGS. 7B and 7C showing the use of a supercritical CO2 extracted LSESr and Permixon®.

Molecules are shown by their SMILES.

For `CC(C)(C)NC(=O)[C@H]1CC[C@H]2[C@@H]3CC[C@H]4NC(=O)C=C[C@]4(C)[C@H]3CC[C@]12C` [finasteride], the “men who noted an improvement” value in the experiment with androgenic alopecia is recorded as 68%.

As to `CCCCC/C=C\C/C=C\CCCCCCCC(=O)O` [linoleic acid], the “effectiveness for 5α-Reductase-2 (in words)” value at 5α-Reductase Type 2 is given as “beneficial for both”. In addition, the hair growth result in the experiment on hair growth is recorded as “about 100%”.

As for `CCCCCCCC/C=C\CCCCCCCC(=O)O` [oleic acid], the “effectiveness for 5α-Reductase-2 (in words)” value on 5α-Reductase Type 2 is on record as “not as much”. Moreover, the “effectiveness for 5α-Reductase-1 (in words)” value at 5α-Reductase Type 1 is on record as “especially effective”.

Source of the values: patent US12648983B2 (U.S. NUTRACEUTICALS, INC., priority 2021, dated 2026).
